# In patent US20260062445A1, “PEPTIDES WITH CYTOKINE-RELEASING ACTIVITY AND METHODS FOR CHARACTERIZING CYTOKINE-RELEASING PROFILES OF PEPTIDES” (KOLIBER BIOSCIENCES INC., priority 2022, published 2026):
# System: expanded naïve CD4+ T cells co-cultured with PBMCs
# Assay: Expanded CD4 positive T cell assay (cytokine release, ELISA)
# Assay type: cell-based, human
# Conditions: for response across donors (frequency of responding wells, IL-10 and IFN-γ): three different donors expressing HLA-DRB1*1101, FIGS. 7A-7B
# From the text: To improve the robustness of the assay and decrease the well-to-well variation, a novel assay system was developed. In effect, by expanding the naïve CD4+ T cells, the number of antigen specific T cells can be increased per well with the goal of detecting a responding well with greater frequency. To expand the naïve CD4+ T cells, the cells are first isolated from PBMCs using negative selection with antibody coated magnetic beads. The naïve CD4+ T cells are then polyclonally expanded using anti-CD3 and anti-CD28 Dynabeads. An expansion of up to 20-fold was observed. The beads were then removed, and the cells were rested for 24 hours. The expanded CD4+ T cells were then co-cultured with PBMCs at a 4:1 ratio and stimulated with peptides twice every 3 days. IL-2 helper cytokine was included. Peptides were utilized at 40 μg/mL. After two peptide stimulations, IL-10 levels in the range of 20-50 picograms […]/mL were observed as compared to 5-10 pg/mL for negative controls (vehicle only) (see FIG. 3C).
# PBMCs were isolated from healthy HLA typed donors of different ages, ethnicities, and genders. […] 100 million PBMC were thawed into media (Rosewell Park Memorial Institute (RPMI) 1640 medium, 10% fetal bovine serum (FBS) Heat Inactivated, 1% Penicillin-Streptomycin) and rested at 37° C., 5% CO2 overnight.
# Naïve CD4+ T cells are isolated from rested PBMC using the BioLegend MojoSort™ Human CD4 T Cell Isolation Kit. Isolated T cells were counted and cultured at a density of 1×10^6 cells/mL of media with 30 units per milliliter (U/mL) of IL-2. T cells were activated and expanded using ThermoFisher Dynabeads™ Human T-Activator CD3/CD28. Beads were added at a 1:1 bead-to-cell ratio. T cells are incubated at 37° C., 5% CO2 for approximately 1 week, splitting in order to maintain the 1×10^6 cells/mL seeding density and with the addition of fresh media. T cells often saw a 20- to 30-fold expansion.
# Expansion beads were magnetically removed from the T cell culture. Remaining T cells were cultured at 1×10^6 cells/mL in media and the IL-2 level was dropped to 10 units/milliliter (U/mL). T cells are rested 24 hours. Meanwhile, another vial of PBMC of the same donor was thawed and similarly rested overnight in media. 1 million expanded T cells and 0.25 million PBMC were cocultured in 1 mL of media containing 10 U/mL IL-2 in 24 well plates. Each well was stimulated with 40 μg of peptide with at least 6 well replicates for each peptide. Sterile water with 10% DMSO was used as a negative control. Plates were incubated at 37° C., 5% CO2 for 3 days. After 3 days, supernatants of each well were collected into Eppendorf tubes and frozen. Cells were resuspended in fresh media containing 10 U/mL IL-2. Cells were restimulated with 40 μg of peptide in the same format. Plates were incubated for another 3 days (see FIG. 2). Supernatants were collected after the second stimulation and cell culture was terminated.
# IL-10 and IFN-γ cytokine concentrations were determined for samples. 96-well microwell plates were coated with capture antibody and incubated overnight at 4° C. Frozen supernatants were thawed and assayed using ELISA MAX™ Deluxe kits.
# To quantify the number of responding wells for each peptide, a one sample t-test was utilized where signal from each well was compared against the distribution of negative wells from vehicle only controls. The negative distribution was normal (based on Shapiro Wilk test). […] As such, for each peptide, a fraction of responding wells was derived. The fraction of responding wells after the first and second peptide stimulations in the expanded CD4+ T cell assay are shown in FIGS. 5A-5D. Moreover, the fraction of responding wells was further subjected to the statistical test for proportions which takes into account the sample size.
Substance,"IFN-γ release (peptide 40 μg/mL, FIGS. 5A-5D)",specificity for IL-10 production vs IFN-γ (three different donors expressing HLA-DRB1*1101),"response across donors (frequency of responding wells, IL-10 and IFN-γ)",IFN-γ signal (upon double stimulation) [pg/mL],IFN-γ signal (upon single stimulation) [pg/mL]
FAVPAKQAKKTLT [KBP82],minimal levels,high specificity,respond across donors,,
KLAKRLLLSMNQ [KBP63],,,respond across donors,,
"Keyhole limpet haemocyanin [KLH, reference compound]",,,,150,80
LALLAPKLLRRF [KBP73],,,respond across donors,,
